What was measured:
[1] = Plasma pharmacokinetics after intravenous administration to rats; assay type: in vivo; details: male, rat
Experimental: To verify the in vivo metabolic stability of the compound of the present invention, plasma pharmacokinetics was evaluated after intravenous administration to rats. Male rats (6 weeks old, body weight 160 - 180 g) were acclimated for 1 week, and the animals diagnosed healthy were used. A mixture of compound F and compound J of the present invention described in Table 1 (F:J = 52:41), and a mixture of carboxylate forms of compound F and compound J (F:J = 54:34), and compound F (synthesized in Example 9) were dissolved in a small amount of ethanol and physiological saline was added to prepare test compound solutions. The test compound solutions were instantaneously administered intravenously at 1 mL/kg from the femoral vein of non-fasting rats under light ether anesthesia. Venous blood was drawn from the tail vein 5, 15, 30, 45, 60, 90 and 120 min after administration. The blood was mixed with heparin and centrifuged (3000 rpm, 4°C, 15 min) to obtain plasma. The plasma compound concentration was determined by the internal standard method using LC-MS/MS. The determination range by this method was from 0.1 to 100 ng/mL. The compound concentrations obtained from each rat were analyzed in a model-independent way using a pharmacokinetics analysis software WinNonlin (ver.3.3), and average ± standard deviation of 3 animals for each group was obtained.

Human EP1 = target: T1, Human EP1 (Homo sapiens, UniProt P34995); assay: Receptor affinity, tritium-labeled PGE2 binding to membranes of transfected COS-7 cells
T1 construct: expressed in transfected cells; host or cells: COS-7
T1 sequence (P34995 1-402): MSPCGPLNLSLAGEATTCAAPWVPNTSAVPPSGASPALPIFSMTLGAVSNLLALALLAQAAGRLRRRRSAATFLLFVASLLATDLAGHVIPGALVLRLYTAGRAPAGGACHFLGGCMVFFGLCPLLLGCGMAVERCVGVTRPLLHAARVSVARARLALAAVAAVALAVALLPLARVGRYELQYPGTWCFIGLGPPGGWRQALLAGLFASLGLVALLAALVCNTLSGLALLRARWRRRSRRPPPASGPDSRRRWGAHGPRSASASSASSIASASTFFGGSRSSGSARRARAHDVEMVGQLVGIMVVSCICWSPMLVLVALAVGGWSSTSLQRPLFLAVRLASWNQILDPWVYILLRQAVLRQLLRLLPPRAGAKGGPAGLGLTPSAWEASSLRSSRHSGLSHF
Experimental: PG receptor affinity of compound F and compound J of the present invention was evaluated. Compound F used was one synthesized in Example 9, and compound J was prepared by separating and purifying the compound synthesized in Example 14 with a column (the same preparations were used in the following Examples). COS-7 cells were transfected with the genes of mouse EP4, human EP1-4 or human IP to overexpress the receptor and then the cell membranes were collected. As a labeled ligand, tritium-labeled PGE2 was used for EPs; tritium-labeled iloprost, for IP. The dissociation constant Kd value was obtained and inhibition constant Ki value of each test compound was determined in a conventional method. As a reference control, PGE2 was used for EPs; beraprost sodium (BPS), for IP.

[2] = system: ethanol-induced gastric mucosal injury; assay: Ethanol-induced gastric mucosal injury model in rats; assay type: in vivo, SD rats
Experimental: Male SD rats (7 weeks old, Charles River) were purchased through Oriental BioService Inc., acclimated for 1 week and used for the study. The rats were grouped based on the body weight, placed in a clean cage set with a wire mesh floor one day before the study, fasted for 19 hr (without water for last 3 hr), and orally administered with ethanol (special grade, Nacalai Tesque, Lot No. V8A5862, 1.5 mL) in all groups to induce gastric mucosal injury. Compound F was orally administered at doses of 0.01, 0.1 and 1 mg/kg 30 min before induction of gastric mucosal injury at a volume of 5 mL/kg. To the control group was orally administered a solvent (1 vol% ethanol solution) at 5 mL/kg in the same manner. Eight animals were used for each group.
The rats were bled to death from the abdominal aorta and caudal vena cava under ether anesthesia after 1 hr from the ethanol administration, and the stomach was isolated. The isolated stomach was immediately filled with 2 vol% neutral formalin solution (6 mL) and fixed for 15 min. The stomach was incised along the midline of the greater curvature from the cardiac part to the pyloric part, and extended on a vinyl chloride board. The length and width of each ulcer were measured under a stereomicroscope, the area was calculated, and the sum thereof was taken as the total ulcer area.

[3] = system: indomethacin-induced small intestinal injury; assay: Indomethacin-induced small intestinal injury model in rats; assay type: in vivo, SD rats
Experimental: Male SD rats, 7 weeks old (Charles River) were purchased, acclimated for 1 week and used for the study. The rats were grouped based on the body weight and subcutaneously ) administered with indomethacin (SIGMA, Lot No. 19F0018) at 15 mg/5 mL/kg to all groups to induce small intestinal injury. Compound F at doses of 0.01, 0.1 and 1 mg/kg was orally administered at a volume of 5 mL/kg 30 min before and 6 hr after the subcutaneous administration of indomethacin. To the control group was orally administered a solvent (1 vol% ethanol solution) at 5 mL/kg in the same manner. Eight animals were used for each group.
The rats were intravenously administered with 2 mL of 10 mg/mL Evans blue solution under ether anesthesia 23.5 hr after the indomethacin administration. After 30 min, the rats were bled to death from the abdominal aorta and caudal vena cava under ether anesthesia and the small intestine was isolated. The isolated small intestine was filled with an adequate amount (about 35 mL) of 2 vol% neutral formalin solution, and fixed for about 15 min. Thereafter, the total small intestine was incised along the mesenteric attachment site, and extended on a vinyl chloride board. The length and width of each ulcer were measured under a stereomicroscope, the area was calculated, and the sum thereof was taken as the total ulcer area.

[4] = system: concanavalin A-induced hepatitis; assay: Prophylactic effect on concanavalin A-induced hepatitis model in mice; assay type: in vivo, BALB/c mice; details: oral 1 hr before Con A, compound F 1 mg/10 mL/kg, prednisolone 5 mg/10 mL/kg, 20 hr after Con A
Experimental: BALB/c mice (female, 7 weeks old, Japan SLC) were purchased, acclimated for 1 week and used for the study. Except the no-induction group, Con A (type IV, Sigma-Aldrich) dissolved in saline was administered from the tail vein of the mice at a dose of 12.5 mg/10 mL/kg to induce hepatitis. Twenty hr later, the mice were subjected to laparotomy under ether anesthesia. A 0.5 mL of blood sample was collected from the caudal vena cava and heparinized plasma was obtained to measure plasma ALT and AST activities. Test substances were compound F (1 mg/10 mL solution), prednisolone (Nacalai Tesque, 5 mg/10 mL suspension (with 0.5 w/v% methylcellulose)) and water for injection (administered to the control group), which were orally administered at a volume of 10 mL/kg 1 hr before Con A injection. Seven to 9 animals were used for each group. After logarithmic transformation of the data, one-way analysis of variance was performed for statistical evaluation.

`Cc1cccc([C@@H](C)[C@H](O)/C=C/[C@@H]2[C@@H]3[C@H](C[C@H]2O)O/C(=C\CCCc2nnn[nH]2)C3(F)F)c1` [Compound F, 4-[(Z)-(1S,5R,6R,7R)-6-[(1E,3R,4R)-3-hydroxy-4-(m-tolyl)-1-pentenyl]-7-hydroxy-2-oxa-4,4-difluoro-bicyclo[3.3.0]octan-3-ylidene]-1-(tetrazol-5-yl)butane] showed a half-life ([1]; iv, 50 ug/kg) of 1.92 ± 0.517 h, a half-life ([1]; iv, 300 ug/kg) of 2.63 ± 0.25 h and a half-life ([1]; rats, intravenous, summary of Table 3) of 1 to 2 h. For the same molecule, the Ki (Human EP1) was 610 nM, the “effect on total ulcer area (stomach)” value ([2]; oral 1 mg/kg 30 min before ethanol) was “almost completely reduced the area” and the “effect on total ulcer area (stomach)” value ([2]; oral 0.01, 0.1 and 1 mg/kg 30 min before ethanol) was “significantly reduced the total ulcer area in a dose-dependent manner from 0.01 mg/kg”. For the same molecule, the “effect on total ulcer area in the small intestine” value ([3]; oral 1 mg/kg 30 min before and 6 hr after indomethacin) was “completely reduced the area”, the “effect on total ulcer area in the small intestine” value ([3]; oral 0.01, 0.1 and 1 mg/kg 30 min before and 6 hr after indomethacin) was “significantly reduced the ulcer area in a dose-dependent manner from a dose of 0.1 mg/kg administration” and the “effect on increase of plasma ALT activity” value [4] was “significantly and strongly suppressed the increase”. The “effect on increase of plasma AST activity” value [4] was “significantly and strongly suppressed the increase”.

— patent EP2545917B1, “NOVEL EP4 AGONIST” (Kaken Pharmaceutical Co., Ltd., priority 2010, dated 2011)
